Measured values published in PMC12316308, “Interactions of substrates and phosphinyl containing inhibitors with bacterial and human zinc proteases” (PLOS One, 2025).
Where “and” joins values, the source holds several entries; their conditions need not be identical. Equal values may be shown once. Read-outs that look alike come from different tables or passages of the source.

What was measured:
Type in all cases: biochemical
[1] = target: T1, Mag-Trypsin activated MMP-9 (MMP-9(MT)) (Homo sapiens, UniProt P14780); experiment: Enzyme inhibition kinetics, fluorogenic substrate ES001; details: rMMP-9 (Mag-trypsin activated); for remaining activity at 100 µM: 100 µM inhibitor
T1 construct: made in house; host or cells: Sf9 and High Five insect cells
Procedure: (§1) The expression of recombinant full length proMMP-9 (rpMMP-9) in Sf9 and High Five insect cells and the purification were performed as previously described. The amount of proMMP-9 was estimated spectrophotometrically at 280 nm using ε280nm = […] [46] for the full length enzyme. Activation of the recombinant proMMP-9 was performed with APMA (auto-activation) and Mag-Trypsin as previously described, while the amount of active MMP-9 was determined by active site titration using galardin, also described previously.
(§2) Determination of reaction velocities. The substrate ES001 was used for APMA activated MMP-9 (MMP-9(A)), Mag-Trypsin activated MMP-9 (MMP-9(MT)) and MMP-14, while the substrate ES005 was used for ALN, PLN and TLN. The reaction velocities/initial rates (v) were determined at 37°C, at an excitation wavelength of 320 nm and an emission wavelength of 405 nm with a slit width of 10 nm using either a Perkin Elmer LS 50 Luminescence spectrometer and the FL WinLab Software Package (Perkin Elmer) or a Clario Star micro plate reader (CLARIOstar® BMG LABTECH).
(§3) The phosphinic compounds were dissolved in 100% DMSO to a final concentration of 10 mM. In all assays, a fixed substrate concentration of 4.0 µM was used in a total volume of 100 µL 0.1 M Hepes pH 7.5, 10 mM CaCl2, 0.005% Brij-35 and 1.0% DMSO. Fixed enzyme concentrations were as follows; 0.05 nM MMP-9(A), 0.05 nM MMP-9(MT), 1.0 nM MMP-14, 1.4 nM ALN, 0.5 nM PLN and 0.21 nM TLN. Time dependent inhibitory experiments, with and without 100 μM of phosphinic compounds, were performed as follows: Compounds were either pre-incubated with proteases for 15 and 30 minutes at room temperature before initiating the enzymatic reaction by adding the substrate, or not pre-incubated, meaning the reaction was initiated by adding the protease to the mixture of substrate and compound. Control tests without the compound present were performed under the same conditions. Reactions were monitored for 30 minutes at 37°C.
(§4) Determination of IC50 and Ki values. […] A fixed substrate concentration and the same enzyme and buffer conditions as described above were used. Enzymes, with or without inhibitors, were either pre-incubated for 30 minutes at room temperature or not pre-incubated, and initial rate assays were performed as described above. Assays were performed using a Clario Star microplate reader. The IC50 values with corresponding s.d. were calculated with GraphPad Prism 5 using equation 1 or 2, depending on the concentration range of the phosphinic compounds.
(§5) Equation 3 describe the relationship between IC50 and Ki values for substrate competitive inhibitors, considering the fixed substrate concentration and the enzyme’s Km value for the substrate: […]

[2] = target: T2, APMA activated MMP-9 (MMP-9(A)) (Homo sapiens, UniProt P14780); experiment: as above; details: rMMP-9 (APMA activated); for remaining activity at 100 µM: 100 µM inhibitor
T2 construct: made in house; host or cells: Sf9 and High Five insect cells
Procedure: as §1, §2, §3, §4, §5

[3] = target: T3, human MT1-MMP/MMP-14 (catalytic domain) (Homo sapiens, UniProt P50281); experiment: as above; details: MMP-14; for remaining activity at 100 µM: 100 µM inhibitor
T3 construct: human MT1-MMP/MMP-14 (catalytic domain); purchased Calbiochem (San Diego, CA, USA)
Procedure: as §2, §3, §4, §5

thermolysin (TLN) = target: T4, thermolysin (TLN) (Bacillus thermoproteolyticus, UniProt P00800); experiment: Enzyme inhibition kinetics, fluorogenic substrate ES005; details: for vi/v0 avg (time dependent inhibition, Supplementary Figure S8): Thermolysin, inhibitor 100 µM
T4 construct: purchased Calbiochem (San Diego, CA, USA)
Procedure: as §2, §3, §4, §5

pseudolysin (PLN, LasB) = target: T5, pseudolysin (PLN, LasB) (Pseudomonas aeruginosa, UniProt P14756); experiment: as above; details: for remaining activity at 100 µM: 100 µM inhibitor
T5 construct: purchased Calbiochem (San Diego, CA, USA)
Procedure: as §2, §3, §4, §5

aureolysin (ALN) = target: T6, aureolysin (ALN) (Staphylococcus aureus, UniProt P81177); experiment: as above; details: for remaining activity at 100 µM: 100 µM inhibitor
T6 construct: purchased BioCentrum Ltd (Kraków, Poland)
Procedure: as §2, §3, §4, §5

[4] = 0.25 h, 15 min pre incubation, read-out: vi/v0 (single replicate)
[5] = 0.25 h, 15 min pre incubation, read-out: vi/v0 avg
[6] = 0.5 h, 30 min pre incubation, read-out: vi/v0 (single replicate)
[7] = 0.5 h, 30 min pre incubation, read-out: vi/v0 avg
[8] = no preincubation, read-out: vi/v0 (single replicate)
[9] = no preincubation, read-out: vi/v0 avg
[10] = inhibitor 100 μM, average over 0, 15, 30 min preincubation
[11] = inhibitor 100 μM, preincubation 0 min
[12] = inhibitor 100 μM, preincubation 15 min
[13] = inhibitor 100 μM, preincubation 30 min

T4 sequence (P00800 233-548): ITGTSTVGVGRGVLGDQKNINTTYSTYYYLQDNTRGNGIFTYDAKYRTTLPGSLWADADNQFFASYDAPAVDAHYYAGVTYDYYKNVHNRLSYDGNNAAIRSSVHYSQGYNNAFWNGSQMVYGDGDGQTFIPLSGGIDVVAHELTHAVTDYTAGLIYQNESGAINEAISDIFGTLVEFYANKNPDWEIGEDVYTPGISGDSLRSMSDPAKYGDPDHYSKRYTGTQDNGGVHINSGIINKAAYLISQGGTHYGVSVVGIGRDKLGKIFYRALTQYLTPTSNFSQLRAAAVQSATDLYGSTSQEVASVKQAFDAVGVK
T2 sequence (P14780 107-707 limits assumed): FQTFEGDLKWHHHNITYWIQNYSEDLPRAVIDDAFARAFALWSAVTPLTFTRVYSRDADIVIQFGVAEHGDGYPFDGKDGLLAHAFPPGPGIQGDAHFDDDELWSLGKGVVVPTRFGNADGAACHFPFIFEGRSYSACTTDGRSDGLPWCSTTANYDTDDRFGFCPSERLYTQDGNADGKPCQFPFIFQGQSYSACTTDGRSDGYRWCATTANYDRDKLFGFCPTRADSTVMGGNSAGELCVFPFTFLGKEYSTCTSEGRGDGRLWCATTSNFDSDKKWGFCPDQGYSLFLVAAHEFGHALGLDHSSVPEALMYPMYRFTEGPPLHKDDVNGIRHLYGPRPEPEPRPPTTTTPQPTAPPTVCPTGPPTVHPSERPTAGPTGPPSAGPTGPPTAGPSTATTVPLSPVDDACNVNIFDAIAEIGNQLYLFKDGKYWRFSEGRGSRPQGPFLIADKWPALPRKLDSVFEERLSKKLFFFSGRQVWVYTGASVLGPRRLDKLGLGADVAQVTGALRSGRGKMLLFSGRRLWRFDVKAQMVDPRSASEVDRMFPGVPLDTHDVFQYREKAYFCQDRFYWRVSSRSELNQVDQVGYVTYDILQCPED
T1 sequence (P14780 107-707 limits assumed): as above
T5 sequence (P14756 198-498): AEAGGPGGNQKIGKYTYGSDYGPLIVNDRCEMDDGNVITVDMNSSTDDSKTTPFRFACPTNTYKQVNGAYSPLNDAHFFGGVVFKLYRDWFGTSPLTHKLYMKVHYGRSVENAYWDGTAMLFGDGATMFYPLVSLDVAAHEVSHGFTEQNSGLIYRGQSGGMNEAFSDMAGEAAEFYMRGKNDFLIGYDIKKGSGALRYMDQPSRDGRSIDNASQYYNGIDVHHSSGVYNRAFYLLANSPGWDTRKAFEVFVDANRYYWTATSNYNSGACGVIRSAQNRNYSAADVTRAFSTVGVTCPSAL
T6 sequence (P81177 209-509): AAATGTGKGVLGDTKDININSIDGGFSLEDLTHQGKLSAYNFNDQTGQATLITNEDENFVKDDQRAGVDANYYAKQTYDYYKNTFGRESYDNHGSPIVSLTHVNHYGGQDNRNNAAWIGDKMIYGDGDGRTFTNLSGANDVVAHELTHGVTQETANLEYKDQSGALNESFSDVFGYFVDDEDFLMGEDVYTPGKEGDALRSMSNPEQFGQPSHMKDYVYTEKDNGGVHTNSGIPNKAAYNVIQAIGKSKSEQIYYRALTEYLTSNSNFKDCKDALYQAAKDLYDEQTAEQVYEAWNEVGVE

## CC(NC(=O)OCc1ccccc1)P(=O)(O)CC(Cc1ccccc1)C(=O)O (centres unmarked) [H4]
[1]; [4]
  remaining activity at 100 µM: 93.4%
[1]; [5]
  remaining activity at 100 µM: 93.8%
[1]; [6]
  remaining activity at 100 µM: 97.8%
[1]; [7]
  remaining activity at 100 µM: 96.3%
[1]; [8]
  remaining activity at 100 µM: 84.9%
[1]; [9]
  remaining activity at 100 µM: 88.4%
[1]; [10]
  vi/v0 Av (bar diagram figure 7): 0.9238
[1]; [11]
  vi/v0 (relative enzyme activity with inhibitor), single determinations: 0.8486 and 0.9422 and 0.8609
[1]; [12]
  vi/v0 (relative enzyme activity with inhibitor), single determinations: 0.9336 and 1.006 and 0.8738
[1]; [13]
  vi/v0 (relative enzyme activity with inhibitor), single determinations: 0.9779 and 0.9473
[2]; [4]
  remaining activity at 100 µM: 99.2%
[2]; [5]
  remaining activity at 100 µM: 95%
[2]; [7]
  remaining activity at 100 µM: 100%
[2]; [8]
  remaining activity at 100 µM: 94.1%
[2]; [9]
  remaining activity at 100 µM: 99.6%
[2]; [10]
  vi/v0 Av (bar diagram figure 7): 0.9837
[2]; [11]
  vi/v0 (relative enzyme activity with inhibitor), single determinations: 0.9415 and 1.015 and 1.031
[2]; [12]
  vi/v0 (relative enzyme activity with inhibitor), single determinations: 0.9922 and 0.9231 and 0.9335
[2]; [13]
  vi/v0 (relative enzyme activity with inhibitor), single determinations: 1.197 and 1.012 and 1.109 and 0.6833
[3]; [5]
  remaining activity at 100 µM: 101%
[3]; [6]
  remaining activity at 100 µM: 101%
[3]; [7]
  remaining activity at 100 µM: 102%
[3]; [9]
  remaining activity at 100 µM: 106%
[3]; inhibitor 100 μM, average over preincubation times
  vi/v0 Av (bar diagram figure 7): 1.032
[3]; [11]
  vi/v0 (relative enzyme activity with inhibitor), single determinations: 1.105 and 1.3078 and 1.015 and 0.8074
[3]; [12]
  vi/v0 (relative enzyme activity with inhibitor), single determinations: 0.8428 and 1.155 and 1.039
[3]; [13]
  vi/v0 (relative enzyme activity with inhibitor), single determinations: 1.0115 and 1.061 and 0.9741
Thermolysin (TLN); Thermolysin (TLN), inhibitor 100 μM, average over 0, 15, 30 min preincubation
  vi/v0 Av (bar diagram figure 7): 0.9988
Thermolysin (TLN); Thermolysin (TLN), inhibitor 100 μM, preincubation 0 min
  vi/v0 (relative enzyme activity with inhibitor), single determinations: 1.0006 and 1.038 and 0.8834 and 0.9657
Thermolysin (TLN); Thermolysin (TLN), inhibitor 100 μM, preincubation 15 min
  vi/v0 (relative enzyme activity with inhibitor), single determinations: 1.066 and 0.8371 and 1.067 and 1.122
Thermolysin (TLN); Thermolysin (TLN), inhibitor 100 μM, preincubation 30 min
  vi/v0 (relative enzyme activity with inhibitor), single determinations: 1.04 and 0.9732 and 1.001 and 0.9929
Thermolysin (TLN); 15 min pre incubation
  vi/v0 avg (time dependent inhibition, Supplementary Figure S8): 1.023
Thermolysin (TLN); 30 min pre incubation
  vi/v0 avg (time dependent inhibition, Supplementary Figure S8): 1.002
Thermolysin (TLN); No preincubation
  vi/v0 avg (time dependent inhibition, Supplementary Figure S8): 0.9718
Pseudolysin (PLN, LasB); 0.25 h, read-out: vi/v0 (single replicate), Pseudolysin, 15 min pre incubation
  remaining activity at 100 µM: 75.8%
Pseudolysin (PLN, LasB); 0.25 h, read-out: vi/v0 avg, Pseudolysin, 15 min pre incubation
  remaining activity at 100 µM: 75.4%
Pseudolysin (PLN, LasB); 0.5 h, read-out: vi/v0 (single replicate), Pseudolysin, 30 min pre incubation
  remaining activity at 100 µM: 64.2%
Pseudolysin (PLN, LasB); 0.5 h, read-out: vi/v0 avg, Pseudolysin, 30 min pre incubation
  remaining activity at 100 µM: 64%
Pseudolysin (PLN, LasB); Pseudolysin (PLN), inhibitor 100 μM, average over 0, 15, 30 min preincubation
  vi/v0 Av (bar diagram figure 7): 0.7111
Pseudolysin (PLN, LasB); Pseudolysin (PLN), inhibitor 100 μM, preincubation 0 min
  vi/v0 (relative enzyme activity with inhibitor), single determinations: 0.8985 and 0.6806 and 0.6817
Pseudolysin (PLN, LasB); Pseudolysin (PLN), inhibitor 100 μM, preincubation 15 min
  vi/v0 (relative enzyme activity with inhibitor), single determinations: 0.7584 and 0.7504
Pseudolysin (PLN, LasB); Pseudolysin (PLN), inhibitor 100 μM, preincubation 30 min
  vi/v0 (relative enzyme activity with inhibitor), single determinations: 0.6423 and 0.5711 and 0.7059
Pseudolysin (PLN, LasB); read-out: vi/v0 avg, Pseudolysin, no preincubation
  remaining activity at 100 µM: 75.4%
Aureolysin (ALN); 0.25 h, read-out: vi/v0 (single replicate), Aureolysin, 15 min pre incubation
  remaining activity at 100 µM: 91.1%
Aureolysin (ALN); 0.25 h, read-out: vi/v0 avg, Aureolysin, 15 min pre incubation
  remaining activity at 100 µM: 90.2%
Aureolysin (ALN); 0.5 h, read-out: vi/v0 (single replicate), Aureolysin, 30 min pre incubation
  remaining activity at 100 µM: 90.1%
Aureolysin (ALN); 0.5 h, read-out: vi/v0 avg, Aureolysin, 30 min pre incubation
  remaining activity at 100 µM: 89.4%
Aureolysin (ALN); Aureolysin (ALN), inhibitor 100 μM, average over 0, 15, 30 min preincubation
  vi/v0 Av (bar diagram figure 7): 0.8998
Aureolysin (ALN); Aureolysin (ALN), inhibitor 100 μM, preincubation 0 min
  vi/v0 (relative enzyme activity with inhibitor), single determinations: 0.9356 and 0.8634 and 0.8536 and 0.9579
Aureolysin (ALN); Aureolysin (ALN), inhibitor 100 μM, preincubation 15 min
  vi/v0 (relative enzyme activity with inhibitor), single determinations: 0.9112 and 0.976 and 0.8542 and 0.865
Aureolysin (ALN); Aureolysin (ALN), inhibitor 100 μM, preincubation 30 min
  vi/v0 (relative enzyme activity with inhibitor), single determinations: 0.898 and 0.8819
Aureolysin (ALN); read-out: vi/v0 (single replicate), Aureolysin, no preincubation
  remaining activity at 100 µM: 93.6%
Aureolysin (ALN); read-out: vi/v0 avg, Aureolysin, no preincubation
  remaining activity at 100 µM: 90.3%
